From US20240140938A1, “PREPARATION OF TETRAHYDROINDAZOLE DERIVATIVES AS NOVEL DIACYLGLYCERIDE O-ACYLTRANSFERASE 2 INHIBITORS” (MERCK SHARP & DOHME LLC, priority 2020, published 2024)

Molecular target: human DGAT2 (hDGAT2) (Homo sapiens (Human), UniProt Q96PD7)
Assay: DGAT2 Enzymatic Activity Assay
Type: biochemical
Settings: hDGAT2 Sf-9 membrane prep; 13C18-triolein product by LC/MS/MS; 25 μM diolein, 5 μM 13C oleoyl-CoA
In short: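 Enzyme source was membrane fractions from Sf-9 cells infected with untagged hDGAT2 baculovirus. Reactions ran at room temperature, and product 13C18-triolein was quantified by LC/MS/MS against a 13C21-triolein internal standard. % inhibition was normalised to high and low controls, and IC50 derived from it.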

Sequence of human DGAT2 (hDGAT2) (Q96PD7 whole entry): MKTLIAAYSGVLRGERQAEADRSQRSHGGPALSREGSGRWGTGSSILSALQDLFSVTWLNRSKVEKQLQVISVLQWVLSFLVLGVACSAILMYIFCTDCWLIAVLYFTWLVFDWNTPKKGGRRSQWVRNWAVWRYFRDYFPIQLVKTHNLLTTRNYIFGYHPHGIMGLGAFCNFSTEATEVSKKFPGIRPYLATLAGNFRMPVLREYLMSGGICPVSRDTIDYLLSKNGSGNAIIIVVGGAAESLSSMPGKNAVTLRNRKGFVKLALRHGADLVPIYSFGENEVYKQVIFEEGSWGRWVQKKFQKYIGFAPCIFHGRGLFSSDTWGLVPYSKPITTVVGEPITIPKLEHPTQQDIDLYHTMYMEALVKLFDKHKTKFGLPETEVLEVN

SMILES	IC50 [nM]
C[C@]1(NC(=O)[C@@H]2CCc3c(-c4cccc(C5(F)CC5)c4)nn(-c4ccc(F)cc4)c3C2)CCS(=O)(=O)C1 [Example 17, (R)-3-(3-(1-fluorocyclopropyl)phenyl)-1-(4-fluorophenyl)-N-((S)-3-methyl-1,1-dioxidotetrahydrothiophen-3-yl)-4,5,6,7-tetrahydro-1H-indazole-6-carboxamide]	70.7
CC(C)n1nc(-c2cccc(CC#N)c2)c2c1C[C@H](C(=O)NC1(C)CS(=O)(=O)C1)CC2 [Example 94, (R)-3-(3-(cyanomethyl)phenyl)-1-isopropyl-N-(3-methyl-1,1-dioxidothietan-3-yl)-4,5,6,7-tetrahydro-1H-indazole-6-carboxamide]	> 10000
CC(C)N1CCC(NC(=O)[C@@H]2CCc3c(-c4cc(OC(F)F)ccc4F)nn(C(C)C)c3C2)C1=O (stereo partly drawn) [Example 64, (6R)-3-(5-(difluoromethoxy)-2-fluorophenyl)-1-isopropyl-N-(1-isopropyl-2-oxopyrrolidin-3-yl)-4,5,6,7-tetrahydro-1H-indazole-6-carboxamide]	622
Cc1nc2c(-c3nn(C(C)C)c4c3CC[C@@H](C(=O)NC3(C)CS(=O)(=O)C3)C4)cccc2o1 [Example 93, (R)-1-isopropyl-N-(3-methyl-1,1-dioxidothietan-3-yl)-3-(2-methylbenzo[d]oxazol-4-yl)-4,5,6,7-tetrahydro-1H-indazole-6-carboxamide]	> 10000
CCOC(=O)N1CCC(C)(NC(=O)[C@@H]2CCc3c(-c4cc(OC(F)F)ccc4F)nn(C(C)C)c3C2)C1 (stereo partly drawn) [Example 59, ethyl 3-((R)-3-(5-(difluoromethoxy)-2-fluorophenyl)-1-isopropyl-4,5,6,7-tetrahydro-1H-indazole-6-carboxamido)-3-methylpyrrolidine-1-carboxylate]	61
Cn1nccc1-c1nn(-c2ccc(F)cn2)c2c1CC[C@@H](C(=O)N[C@@]1(C)CCS(=O)(=O)C1)C2 [Example 20, (R)-1-(5-fluoropyridin-2-yl)-N-((S)-3-methyl-1,1-dioxidotetrahydrothiophen-3-yl)-3-(1-methyl-1H-pyrazol-5-yl)-4,5,6,7-tetrahydro-1H-indazole-6-carboxamide]	8430

Molecules with a lower IC50, results first:

IC50 [nM]	SMILES
37	C[C@]1(NC(=O)C2CCc3c(-c4cccc(OC(F)F)c4)nn(-c4ncc(Cl)cn4)c3C2)CCS(=O)(=O)C1 (stereo partly drawn) [Example 10, 1-(5-chloropyrimidin-2-yl)-3-(3-(difluoromethoxy)phenyl)-N-((S)-3-methyl-1,1-dioxidotetrahydrothiophen-3-yl)-4,5,6,7-tetrahydro-1H-indazole-6-carboxamide]
30.8	CC(C)n1nc(-c2cc(OC(F)F)ccc2F)c2c1C[C@H](C(=O)NC1(C)CS(=O)(=O)C1)CC2 [Example 82, (R)-3-(5-(difluoromethoxy)-2-fluorophenyl)-1-isopropyl-N-(3-methyl-1,1-dioxidothietan-3-yl)-4,5,6,7-tetrahydro-1H-indazole-6-carboxamide]
5.8	CC(C)n1nc(-c2cc(OC(F)F)ccc2F)c2c1CC(C(=O)N[C@@]1(C)CCS(=O)(=O)C1)CO2 (stereo partly drawn) [Example 122, 3-(5-(difluoromethoxy)-2-fluorophenyl)-1-isopropyl-N-((S)-3-methyl-1,1-dioxidotetrahydrothiophen-3-yl)-1,5,6,7-tetrahydropyrano[3,2-c]pyrazole-6-carboxamide]
10.3	CCOc1cc(-c2nn(C(C)C(F)(F)F)c3c2CC[C@@H](C(=O)NC2(C)CCS(=O)(=O)CC2)C3)c(F)cn1 (single isomer, unassigned) [Example 53b]
